# Measured values reported in patent US20190085289A1, “COMPOSITIONS AND METHODS FOR PATHOGEN INACTIVATION OF PLATELETS” (Cerus Corporation, priority 2017, published 2019).
# Marks after values point to notes of the source that are not given here.
# Columns and labels:
# [1] = system: calicivirus FCV; experiment: FCV inactivation with 150 μM S-59 after pre-incubation in PAS/Plasma, plaque assay; assay type: cell-based, feline calicivirus (FCV); conditions: for Normalized FCV Log Inactivation/mL / FCV Log Inactivation/mL / FCV Titer, 3J TEST: S-59 ~150 μM, UVA ~3 J/cm^2; for Normalized FCV Log Inactivation/mL: normalized to the FCV pool titer; for FCV Log Inactivation/mL: vs 0J control of same time; for FCV Titer, 3J TEST: platelets in PAS/Plasma 65%/35%
# Protocol: From the results of Examples 1 and 2, showing that amotosalen is stable in PAS and PAS/Plasma, an additional study was performed that evaluated the level of inactivation of the calicivirus FCV with S-59 after extended incubation in PAS/Plasma. In this study, platelets in PAS/Plasma (65%/35%) were pooled to approximately 1320 mL, with approximately 16×10^11 total platelets, and spiked with a stock of the calicivirus FCV at a 1:100 dilution. A sample was taken from the FCV-spiked platelet pool to determine initial titer. The FCV-spiked platelets were then split into 5 units, at approximately 260 mL each, with approximately 3.2×10^11 platelets per unit. Each unit was dosed with S-59 at approximately 150 μM concentration, which is the concentration used commercially in the INTERCEPT® Blood System for pathogen inactivation treatment. Following the addition of S-59, the platelet units were incubated for 0, 2, 4, 8 or 24 hr. A control sample was taken at each time point for virus titer determination and HPLC analysis of S-59 concentration pre-UVA treatment, followed by UVA light exposure at ˜3 J/cm^2 to complete the photochemical treatment process for all test samples. Following UVA treatment, the control and test samples were evaluated for inactivation of FCV using a standard virological plaque assay.
# [2] = system: K. pneumoniae; experiment: Photochemical inactivation of K. pneumoniae in platelets, bacterial titer assay; assay type: cell-based
# Protocol: Another study evaluated 24 hour stability and photoconversion of amotosalen (S-59) in PAS with plasma and platelets, in the presence of bacteria. Two ABO matched platelet units in 100% plasma were pooled, split into two units and InterSol® PAS added (e.g., 65/35). S-59 was added to the test unit at a concentration of 150 but not initially to the control unit. A log culture of K. pneumoniae (˜8 log cfu/mL) was added to the units at a target of ˜60 CFU/unit and the units were incubated in a platelets shaker at 22° C. for approximately 24 hours. At the end of incubation, S-59 was also added to the control unit at the same concentration and both control and test units were subjected to UVA light. Samples were taken pre- and post-UVA illumination for both units bacterial titer assay and HPLC. Post-illumination both units were subjected to a CAD processing step to remove residual amotosalen and photoproducts and stored on a platelet shaker for 7 days to confirm no growth of bacteria. Photochemical inactivation of K. pneumoniae was also measured post-UVA exposure, with the titer (log cfu/mL) results shown in the following table.
# [3] = Stability of S-59 in InterSol PAS protected from ambient light (HPLC); assay type: physicochemical; conditions: for S-59 UV peak area (HPLC) / S-59 concentration (HPLC): 230 μM in InterSol PAS, room temp, protected from light
# Protocol: Additional studies evaluated stability of the S-59 (amotosalen) pathogen inactivation compound formulated in a platelet additive solution (PAS), but protected from ambient light exposure. A 230 μM solution of S-59 was prepared in the commercially available PAS solution InterSol® (Fenwal Inc.) and maintained at room temperature protected from ambient light conditions. HPLC analysis was performed on samples at times listed in Table 2 for both S-59 and photoproducts.
# [4] = system: Caliciviruses, such as feline calicivirus (FCV); conditions: photochemical inactivation, Irsch et al. 2011; cited from earlier work
# [5] = Post-UVA residual S-59 concentration in FCV-spiked platelets (HPLC); assay type: physicochemical; conditions: for Post-UVA S-59 concentration: UVA ~3 J/cm^2
# Protocol: An additional study was performed to evaluate the level of FCV inactivation with decreasing amounts of S-59 after extended incubation (e.g., pre-incubation) in PAS/Plasma. In this study, platelets in PAS/Plasma (65%/35%) were spiked with a stock of FCV at a 1:100 dilution. The FCV-spiked platelets were then split into 16 separate test units. Each unit was dosed with S-59 at approximately 150 μM, 90 μM, 30 μM or 15 μM concentration. Following the addition of S-59 in one of four dosing groups, the platelet units in each dosing group were incubated for 0, 4, 8 or 24 hr prior to illumination. A control sample was taken from each unit for virus titer determination and HPLC analysis of S-59 concentration pre-UVA treatment, followed by UVA light exposure at ˜3 J/cm^2 for photochemical treatment of the test samples. Following UVA treatment, the control and test samples were evaluated for inactivation of FCV using a standard virological plaque assay.
# HPLC analysis also was performed to determine the amount (e.g., concentration) of S-59 remaining in samples after UVA illumination and photoconversion (Table 10).
# [6] = Control unit (S-59 added after ~24 h incubation, then UVA), Replicate 1
# [7] = Control unit (S-59 added after ~24 h incubation, then UVA), Replicate 2
# [8] = Test unit (S-59 150 present during ~24 h incubation, then UVA), Replicate 1
# [9] = Test unit (S-59 150 present during ~24 h incubation, then UVA), Replicate 2
structure (smiles),measurement,setting,value
"Cc1oc2c(C)c3oc(=O)cc(C)c3cc2c1COCCN [S-59, 3-(2-aminoethoxymethyl)-2,5,9-trimethylfuro[3,2-g]chromen-7-one]",level of FCV inactivation,[1]; S-59/PAS/Plasma incubated 2 or more hours prior to UVA exposure,below the limit of detection
same,Normalized FCV Log Inactivation/mL,[1]; pre-incubation T = 0 hr,1.4 Log/mL
same,FCV Log Inactivation/mL,[1]; pre-incubation T = 0 hr,1.2 Log/mL
same,Normalized FCV Log Inactivation/mL,[1]; pre-incubation T = 2 hr,>5.8 Log/mL
same,FCV Log Inactivation/mL,[1]; pre-incubation T = 2 hr,>5.4 Log/mL
same,Normalized FCV Log Inactivation/mL,[1]; pre-incubation T = 4 hr,>5.8 Log/mL
same,FCV Log Inactivation/mL,[1]; pre-incubation T = 4 hr,>5.7 Log/mL
same,Normalized FCV Log Inactivation/mL,[1]; pre-incubation T = 8 hr,>5.8 Log/mL
same,FCV Log Inactivation/mL,[1]; pre-incubation T = 8 hr,>5.2 Log/mL
same,Normalized FCV Log Inactivation/mL,[1]; pre-incubation T = 24 hr,>5.8 Log/mL
same,FCV Log Inactivation/mL,[1]; pre-incubation T = 24 hr,>5.1 Log/mL
same,"FCV Titer, 3J TEST",[1]; pre-incubation T = 0 hr,4.6 Log PFU/mL
same,"FCV Titer, 3J TEST",[1]; pre-incubation T = 2 hr,<0.22* Log PFU/mL
same,"FCV Titer, 3J TEST",[1]; pre-incubation T = 4 hr,<0.22* Log PFU/mL
same,"FCV Titer, 3J TEST",[1]; pre-incubation T = 8 hr,<0.22* Log PFU/mL
same,"FCV Titer, 3J TEST",[1]; pre-incubation T = 24 hr,<0.22* Log PFU/mL
same,K. pneumoniae Log Reduction,[2]; [6],>7.3 Log
same,K. pneumoniae Titer Post-UVA,[2]; [6],<−0.7 log cfu/mL
same,K. pneumoniae Log Reduction,[2]; [7],>6.3 Log
same,K. pneumoniae Titer Post-UVA,[2]; [7],<−0.7 log cfu/mL
same,K. pneumoniae Log Reduction,[2]; [8],>7.3 Log
same,K. pneumoniae Titer Post-UVA,[2]; [8],<−0.7 log cfu/mL
same,K. pneumoniae Log Reduction,[2]; [9],>6.2 Log
same,K. pneumoniae Titer Post-UVA,[2]; [9],<−0.7 log cfu/mL
same,photochemical inactivation of K. pneumoniae,"[2]; post-UVA, both the control and test units",High level inactivation
same,S-59 UV peak area (HPLC),[3]; 5.5 hr,3451.6489
same,S-59 concentration (HPLC),[3]; 5.5 hr,232.74 µM
same,S-59 UV peak area (HPLC),[3]; 21.5 hr,3439.4907
same,S-59 concentration (HPLC),[3]; 21.5 hr,231.93 µM
same,S-59 UV peak area (HPLC),[3]; 28.5 hr,3421.447
same,S-59 concentration (HPLC),[3]; 28.5 hr,230.72 µM
same,S-59 UV peak area (HPLC),[3]; 44 hr,3425.1028
same,S-59 concentration (HPLC),[3]; 44 hr,230.96 µM
same,S-59 UV peak area (HPLC),[3]; 45.5 hr,3399.0142
same,S-59 concentration (HPLC),[3]; 45.5 hr,229.22 µM
same,S-59 UV peak area (HPLC),[3]; 53 hr,3421.4934
same,S-59 concentration (HPLC),[3]; 53 hr,230.72 µM
same,S-59 UV peak area (HPLC),[3]; 77 hr,3446.6414
same,S-59 concentration (HPLC),[3]; 77 hr,232.41 µM
same,S-59 UV peak area (HPLC),[3]; T 0,3393.0647
same,S-59 concentration (HPLC),[3]; T 0,228.82 µM
same,loss of S-59,"[3]; InterSol PAS, protected from ambient light, at 77 hours",no loss
same,log10 reduction in titer,[4],1.7-2.4 log10
same,Post-UVA S-59 concentration,"[5]; Input S-59 15 μM, pre-incubation 0 hr",3 µM
same,Post-UVA S-59 concentration,"[5]; Input S-59 15 μM, pre-incubation 4 hr",2 µM
same,Post-UVA S-59 concentration,"[5]; Input S-59 15 μM, pre-incubation 8 hr",2 µM
same,Post-UVA S-59 concentration,"[5]; Input S-59 15 μM, pre-incubation 24 hr",2 µM
same,Post-UVA S-59 concentration,"[5]; Input S-59 30 μM, pre-incubation 0 hr",5 µM
same,Post-UVA S-59 concentration,"[5]; Input S-59 30 μM, pre-incubation 4 hr",2 µM
same,Post-UVA S-59 concentration,"[5]; Input S-59 30 μM, pre-incubation 8 hr",2 µM
same,Post-UVA S-59 concentration,"[5]; Input S-59 30 μM, pre-incubation 24 hr",3 µM
same,Post-UVA S-59 concentration,"[5]; Input S-59 90 μM, pre-incubation 0 hr",14 µM
same,Post-UVA S-59 concentration,"[5]; Input S-59 90 μM, pre-incubation 4 hr",10 µM
same,Post-UVA S-59 concentration,"[5]; Input S-59 90 μM, pre-incubation 8 hr",11 µM
same,Post-UVA S-59 concentration,"[5]; Input S-59 90 μM, pre-incubation 24 hr",9 µM
same,Post-UVA S-59 concentration,"[5]; Input S-59 150 μM, pre-incubation 0 hr",29 µM
same,Post-UVA S-59 concentration,"[5]; Input S-59 150 μM, pre-incubation 4 hr",33 µM
same,Post-UVA S-59 concentration,"[5]; Input S-59 150 μM, pre-incubation 8 hr",22 µM
same,Post-UVA S-59 concentration,"[5]; Input S-59 150 μM, pre-incubation 24 hr",19 µM
same,residual S-59 concentration post-treatment,"[5]; S-59 dosing groups with pre-incubation, levels reached",less than 5 μM
same,residual S-59 concentration,"[5]; conditions giving high levels of inactivation (e.g., >4 logs)",2 µM
